Test results taken from patent publication US11124554B2, “Modified ligand-gated ion channels and methods of use” (Howard Hughes Medical Institute, priority 2016, dated 2021).
Entries after “also recorded” stand apart in the source; their conditions may differ.

What was measured:
α7^Q79S,L131G-GlyR = biological target: T1, α7^Q79S,L131G-GlyR (Homo sapiens, UniProt P36544, L131G/Q79S); test: Agonist potency at chimeric channel (Table 9); assay type: cell-based
T1 construct: expressed in transfected cells
T1 sequence (P36544 with tags, fused parts or gaps Q79S/L131G): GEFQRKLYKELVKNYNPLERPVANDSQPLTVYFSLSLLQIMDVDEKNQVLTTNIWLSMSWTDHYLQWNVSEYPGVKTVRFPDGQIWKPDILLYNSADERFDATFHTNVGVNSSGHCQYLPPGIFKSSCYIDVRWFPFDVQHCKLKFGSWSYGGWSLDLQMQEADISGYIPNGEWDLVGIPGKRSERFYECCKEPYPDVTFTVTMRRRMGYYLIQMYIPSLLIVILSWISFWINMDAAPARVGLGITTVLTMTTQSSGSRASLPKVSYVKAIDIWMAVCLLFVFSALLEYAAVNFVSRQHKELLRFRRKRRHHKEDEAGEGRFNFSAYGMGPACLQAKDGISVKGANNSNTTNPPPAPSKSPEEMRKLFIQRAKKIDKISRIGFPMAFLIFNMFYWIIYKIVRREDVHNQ

α7^L131A-GlyR = biological target: T2, α7^L131A-GlyR (Homo sapiens, UniProt P36544, L131A); test: Agonist potency at chimeric channel (Table 9); assay type: cell-based
T2 construct: expressed in transfected cells
T2 sequence (P36544 with tags, fused parts or gaps L131A): as the sequence (P36544 with tags, fused parts or gaps Q79S/L131G) above, with S57Q, G109A counted along it

α7^L131G-5HT3 HC = test: Agonist potency at chimeric channel (Table 9); assay type: cell-based, human
[1] = test system: mouse cortical neurons transfected with α7^L131G,Q139L,Y217F-GlyR; test: Action potential firing of transfected cortical neurons; assay type: cell-based; details: 10 nM; even with >6-fold greater injected current
Excerpt: FIGS. 9A-9D show activity of agonists on chimeric LGICs with a L131G mutation. FIG. 9A) A graph of EC50s for L131 LBD mutants against known agonists normalized to the unmodified α7-GlyR chimeric channel (log scale). […] Unmod.: unmodified α7-GlyR chimeric LGIC. FIG. 9D) Action potentials of a cortical neuron from a mouse brain transduced with α7^L131G,Q139L,Y217F-GlyR chimeric LGIC. […] After washout (WASH) of tropisetron, neuron firing is restored.
DNA plasmids containing nucleic acids encoding a α7L131G,Q139L,Y217F-GlyR chimeric LGICs were transfected into mouse cortical neurons. […] Neuron activity was silenced by application of low concentration of agonist (FIG. 9C).

α7^L131G,Y217F-GlyR = biological target: T3, α7^L131G,Y217F-GlyR (Homo sapiens, UniProt P36544, L131G/Y217F); test: Agonist potency at chimeric channel (Table 9); assay type: cell-based
T3 construct: expressed in transfected cells
T3 sequence (P36544 with tags, fused parts or gaps L131G/Y217F): as the sequence (P36544 with tags, fused parts or gaps Q79S/L131G) above, with S57Q, Y195F counted along it

[2] = biological target: T4, α7^L131G,Q139L,Y217F-GlyR (Homo sapiens, UniProt P36544, L131G/Q139L/Y217F); test: cell-based; assay type: cell-based
T4 construct: expressed in transfected cells
T4 sequence (P36544 with tags, fused parts or gaps L131G/Q139L/Y217F): as the sequence (P36544 with tags, fused parts or gaps Q79S/L131G) above, with S57Q, Q117L, Y195F counted along it

α7^L131G,Q139L-GlyR = biological target: T5, α7^L131G,Q139L-GlyR (Homo sapiens, UniProt P36544, L131G/Q139L); test: Agonist potency at chimeric channel (Table 9); assay type: cell-based
T5 construct: expressed in transfected cells
T5 sequence (P36544 with tags, fused parts or gaps L131G/Q139L): as the sequence (P36544 with tags, fused parts or gaps Q79S/L131G) above, with S57Q, Q117L counted along it

α7^Q79S,L131G,Q139L-GlyR = biological target: T6, α7^Q79S,L131G,Q139L-GlyR (Homo sapiens, UniProt P36544, L131G/Q139L/Q79S); test: cell-based; assay type: cell-based
T6 construct: expressed in transfected cells
T6 sequence (P36544 with tags, fused parts or gaps Q79S/L131G/Q139L): as the sequence (P36544 with tags, fused parts or gaps Q79S/L131G) above, with Q117L counted along it

[3] = biological target: T7, α7^L131G,Q139L,Y217F-5HT3 HC (Homo sapiens, UniProt P36544, L131G/M226I/Q139L/T225I/Y217F); test: Agonist potency at chimeric channel (Table 9); assay type: cell-based; details: α7^L131G,Q139L,Y217F-5HT3 HC
T7 construct: expressed in transfected cells
T7 sequence (P36544 with tags, fused parts or gaps L131G/Q139L/Y217F/T225I/M226I limits assumed): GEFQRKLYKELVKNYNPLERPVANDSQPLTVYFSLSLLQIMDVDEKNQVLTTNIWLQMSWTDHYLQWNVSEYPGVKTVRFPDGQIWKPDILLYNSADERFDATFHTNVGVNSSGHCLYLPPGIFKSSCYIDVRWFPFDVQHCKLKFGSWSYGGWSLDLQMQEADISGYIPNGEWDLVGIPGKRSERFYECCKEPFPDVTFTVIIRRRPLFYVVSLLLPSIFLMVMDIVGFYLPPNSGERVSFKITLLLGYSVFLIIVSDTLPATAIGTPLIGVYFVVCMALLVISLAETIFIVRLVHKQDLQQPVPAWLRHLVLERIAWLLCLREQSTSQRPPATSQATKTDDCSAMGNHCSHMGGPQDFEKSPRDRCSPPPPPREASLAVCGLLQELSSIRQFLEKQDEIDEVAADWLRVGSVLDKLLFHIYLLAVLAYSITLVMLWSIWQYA

With `c1cnc2cc3c(cc2n1)[C@@H]1CNC[C@H]3C1` [Varenicline] the “improved potency over α7-GlyR” value (α7^Q79S,L131G-GlyR) was 89 fold, the potency enhancement (α7^L131A-GlyR) was 8 fold and the potency enhancement (α7^L131G-5HT3 HC) was 16 fold. The “suppression of action potential firing” value [1] was “silenced; also recorded: potently suppressed”, the “potency enhancement over α7-GlyR” value (α7^L131G,Y217F-GlyR) was 21 fold and the “improvement in potency over α7-GlyR” value [2] was 387 fold. The “potency enhancement over α7-GlyR” value (α7^L131G,Q139L-GlyR) was 21 fold, the “improved potency over α7-GlyR” value (α7^Q79S,L131G,Q139L-GlyR) was 31 fold and the “improved potency over a7-5HT3” value [3] was 131 fold.
